Results reported in PubChem BioAssay AID248 (DTP/NCI, 2004).
Inconclusive results and toxic doses are left out.

Tested on: L1210 leukemia ip in BDF1 mice, survival T/C
Experiment: NCI In Vivo Anticancer Drug Screen. Data for tumor model L1210 Leukemia (intraperitoneal) in B6D2F1 (BDF1) mice
Conditions: endpoint: mean survival time, higher = longer survival
Outline: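 Survival endpoint. Drug-treated group vs vehicle group, expressed as T divided by C. Tumor passaged by transplantation.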

[1] = dose: 100.0 mg/kg/injection, schedule: Q01DX001 (ip), vehicle: Klucel (hydroxypropylcellulose) (HPC)
[2] = dose: 200.0 mg/kg/injection, schedule: Q01DX001 (ip), vehicle: Klucel (hydroxypropylcellulose) (HPC)

N=C(N)Sc1n[nH]c(=O)[nH]c1=O
T/C (dose: 75.0 mg/kg/injection, schedule: Q01DX001 (ip), vehicle: alcohol): 100 % of control
T/C (dose: 150.0 mg/kg/injection, schedule: Q01DX001 (ip), vehicle: alcohol): 90 % of control

O=C(NC(Cc1cn(Cc2ccccc2)cn1)C(=O)O)OCc1ccccc1 (stereo not drawn)
T/C (dose: 100.0 mg/kg/injection, schedule: Q04DX003 (ip), vehicle: Klucel (hydroxypropylcellulose) (HPC)): 104 % of control
T/C (dose: 200.0 mg/kg/injection, schedule: Q04DX003 (ip), vehicle: Klucel (hydroxypropylcellulose) (HPC)): 104 % of control
T/C (dose: 400.0 mg/kg/injection, schedule: Q04DX003 (ip), vehicle: Klucel (hydroxypropylcellulose) (HPC)): 97 % of control

O=C(O)CN1C(=O)CSC1=S
T/C (dose: 100.0 mg/kg/injection, schedule: Q01DX009 (ip), vehicle: saline with Tween-80): 655 % of control
T/C (dose: 200.0 mg/kg/injection, schedule: Q01DX009 (ip), vehicle: saline with Tween-80): 91 % of control
T/C (dose: 400.0 mg/kg/injection, schedule: Q01DX009 (ip), vehicle: saline with Tween-80): 89 % of control

CCCCN(C)N=Nc1ccc(C(N)=O)cc1
T/C (dose: 20.0 mg/kg/injection, schedule: Q01DX Z (ip), vehicle: carboxymethylcellulose (CMC)): 98 % of control
T/C (dose: 40.0 mg/kg/injection, schedule: Q01DX Z (ip), vehicle: carboxymethylcellulose (CMC)): 101 % of control
T/C (dose: 60.0 mg/kg/injection, schedule: Q01DX Z (ip), vehicle: carboxymethylcellulose (CMC)): 104 % of control

c1ccc(CNCc2cccnc2)cc1
T/C (dose: 75.0 mg/kg/injection, schedule: Q01DX009 (ip), vehicle: other): 91 % of control
T/C (dose: 150.0 mg/kg/injection, schedule: Q01DX009 (ip), vehicle: other): 98 % of control

COc1ccc(-n2c(=O)c(N=Nc3ccc(Br)cc3)c(O)n(-c3ccccc3OC)c2=S)cc1
T/C (dose: 50.0 mg/kg/injection, schedule: Q01DX001 (ip), vehicle: Klucel (hydroxypropylcellulose) (HPC)): 106 % of control
T/C [1]: 103 % of control
T/C [2]: 103 % of control

CC(C)CCCCCc1ccc(OCCOc2ccc(C(=O)Nc3ccc(S(=O)(=O)F)cc3[N+](=O)[O-])cc2)cc1
T/C [1]: 100 % of control
T/C [2]: 94 % of control
T/C (dose: 400.0 mg/kg/injection, schedule: Q01DX001 (ip), vehicle: Klucel (hydroxypropylcellulose) (HPC)): 94 % of control

CCCCOCCOC(=O)C1OC1(C)c1ccccc1 (stereo not drawn)
T/C (dose: 100.0 mg/kg/injection, schedule: Q04DX002 (ip), vehicle: saline with Tween-80): 100 % of control
T/C (dose: 200.0 mg/kg/injection, schedule: Q04DX002 (ip), vehicle: saline with Tween-80): 102 % of control
T/C (dose: 400.0 mg/kg/injection, schedule: Q04DX002 (ip), vehicle: saline with Tween-80): 106 % of control

Cc1ccccc1[As](c1ccccc1C)c1ccccc1C
T/C (dose: 100.0 mg/kg/injection, schedule: Q04DX003 (ip), vehicle: saline with Tween-80): 87 % of control

O=C(O)COc1ccc(C(=O)c2cc(Br)ccc2OCC(=O)O)cc1
T/C (dose: 100.0 mg/kg/injection, schedule: Q01DX001 (ip), vehicle: carboxymethylcellulose (CMC)): 105 % of control
T/C (dose: 200.0 mg/kg/injection, schedule: Q01DX001 (ip), vehicle: carboxymethylcellulose (CMC)): 98 % of control
T/C (dose: 400.0 mg/kg/injection, schedule: Q01DX001 (ip), vehicle: carboxymethylcellulose (CMC)): 103 % of control

COc1ccc(C2CCCCCC2OC(=O)c2ccc([N+](=O)[O-])cc2)c(OC)c1OC (stereo not drawn)
T/C (dose: 100.0 mg/kg/injection, schedule: Q01DX001 (ip), vehicle: other): 96 % of control
T/C (dose: 200.0 mg/kg/injection, schedule: Q01DX001 (ip), vehicle: other): 106 % of control
T/C (dose: 400.0 mg/kg/injection, schedule: Q01DX001 (ip), vehicle: other): 96 % of control

O=C(O)c1ccc(F)c(F)c1
T/C (dose: 100.0 mg/kg/injection, schedule: Q04DX002 (ip), vehicle: other): 110 % of control
T/C (dose: 200.0 mg/kg/injection, schedule: Q04DX002 (ip), vehicle: other): 115 % of control
T/C (dose: 400.0 mg/kg/injection, schedule: Q04DX002 (ip), vehicle: other): 107 % of control

CNc1cnc(Cl)nc1Cl
T/C (dose: 50.0 mg/kg/injection, schedule: Q01DX001 (ip), vehicle: acetone): 98 % of control
T/C (dose: 100.0 mg/kg/injection, schedule: Q01DX001 (ip), vehicle: acetone): 93 % of control
T/C (dose: 200.0 mg/kg/injection, schedule: Q01DX001 (ip), vehicle: acetone): 97 % of control

Nc1ccccc1N=Cc1cc(F)ccc1[N+](=O)[O-]
T/C (dose: 100.0 mg/kg/injection, schedule: Q04DX003 (ip), vehicle: other): 97 % of control
T/C (dose: 200.0 mg/kg/injection, schedule: Q04DX003 (ip), vehicle: other): 102 % of control
T/C (dose: 400.0 mg/kg/injection, schedule: Q04DX003 (ip), vehicle: other): 114 % of control
